ChEMBL document CHEMBL4418284, “Hypdh inhibitors and methods of use for the treatment of kidney stones” (2018)

Target: T1, Hydroxyproline dehydrogenase (Homo sapiens, UniProt Q9UF12)
T1 sequence (Q9UF12 whole entry): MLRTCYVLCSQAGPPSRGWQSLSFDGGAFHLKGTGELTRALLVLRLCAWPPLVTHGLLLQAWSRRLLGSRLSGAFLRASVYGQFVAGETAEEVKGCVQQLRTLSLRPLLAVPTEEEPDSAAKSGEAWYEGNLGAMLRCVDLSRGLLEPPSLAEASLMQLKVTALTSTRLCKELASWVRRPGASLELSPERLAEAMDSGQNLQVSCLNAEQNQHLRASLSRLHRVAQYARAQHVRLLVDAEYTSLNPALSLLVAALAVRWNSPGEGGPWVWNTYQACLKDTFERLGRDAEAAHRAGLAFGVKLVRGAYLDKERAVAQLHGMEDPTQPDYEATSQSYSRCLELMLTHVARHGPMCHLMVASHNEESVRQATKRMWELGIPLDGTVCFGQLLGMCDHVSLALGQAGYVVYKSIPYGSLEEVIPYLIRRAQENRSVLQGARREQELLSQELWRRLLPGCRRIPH
Assay: Inhibition of human recombinant HYPDH expressed in Escherichia coli using hydroxyproline as substrate preincubated for 5 mins followed by substrate addition in presence of FAD as cofactor

IC50: Nd(Insoluble)
SMILES: O=C(O)c1ccco1
